Consider 1 compound from article PMC9820444, “Design and Synthesis of Acridine-Triazole and Acridine-Thiadiazole Derivatives and Their Inhibitory Effect against Cancer Cells” (International Journal of Molecular Sciences, 2022).

The test system of test [1] is hepatocellular carcinoma bel-7404 (BEL-7404). Description: MTT antiproliferative assay, BEL-7404. The test is classed as cell-based, human. The conditions noted are these: Homo sapiens, read-out: Effect against cell viability (IC50), BEL-7404.
The test system of test [2] is human normal liver cells (LO2). Description: Cytotoxicity against normal liver cells LO2. The test is classed as cell-based. To be noted: Homo sapiens, MTT, read-out: Effect against cell viability (IC50), LO2.
The subject of the next test is MGC80-3 cells. Description: Apoptosis by Annexin V-FITC/PI flow cytometry, MGC80-3. The test is classed as cell-based, human. To be noted: control 0.586%. The method, then:
The apoptosis ratios of MGC80-3 or T24 cell lines induced by the selected compounds at the concentration of IC50 and 0.5 IC50 were quantitatively determined by flow cytometry. Four quadrant images (Q1, Q2, Q3 and Q4) were observed by flow cytometric analysis. […] […] After treatment with compound 6h, 5.62% (3.43 μM) and 14.25% (6.85 μM) of the cells were apoptotic. These were higher percentages than the one observed in the control (0.586%). […] The results evidently illustrate that representative compounds 5d and 6h or 4h and 6h could suppress cell proliferation by inducing apoptosis in the early apoptotic period.
(§1) The apoptosis assay and the cell cycle analysis were carried out by cytometry (FACSVerse, BD, Piscataway, NJ, USA) at an excitation wavelength of 488 nm according to the method described in the literature with slight modifications. The cells were seeded at 2 × 10^6/well and washed by cold PBS. The buffer solutions were prepared using 0.1 M pH 7.4 Hepes/NaOH, 1.4 M NaCl, and 25 mM CaCl2.
A general note: In flow cytometry, cells or beads pass a laser one at a time.

The test system of a further test is T24 cells. Description: Apoptosis by Annexin V-FITC/PI flow cytometry, T24. The class given is cell-based, human. The conditions noted are these: T24, at IC50 concentration (4h 8.05 μM; 6h 8.93 μM); control 1.18%. The method, then: The apoptosis ratios of MGC80-3 or T24 cell lines induced by the selected compounds at the concentration of IC50 and 0.5 IC50 were quantitatively determined by flow cytometry. Four quadrant images (Q1, Q2, Q3 and Q4) were observed by flow cytometric analysis. The results of apoptosis ratios (including the early and late apoptosis ratios) after 12 h are presented in Figure 6 (MGC80-3) and Figure 7 (T24). […] After treatment with compound 6h, 5.62% (3.43 μM) and 14.25% (6.85 μM) of the cells were apoptotic. These were higher percentages than the one observed in the control (0.586%). […] The results evidently illustrate that representative compounds 5d and 6h or 4h and 6h could suppress cell proliferation by inducing apoptosis in the early apoptotic period.
as §1

One may read the IC50 as the point on the concentration scale where inhibition reaches its midpoint. In the case of `COc1ccc(-c2nnc(N=C3c4ccccc4NC4C=CC(C)=CC34)s2)cc1` (centres unmarked) [6h, 7-methyl-N-(5-(4-methoxyphenyl)-1,3,4-thiadiazol-2-yl)-10,10a-dihydroacridin-9(8aH)-imine], the IC50 in test [1] came out at 20.2 ± 1.59 µM; in test [2], 43.8 ± 2.63 µM. Moreover, the “apoptosis percentage (early and late)” value with MGC80-3 cells (MGC80-3, 0.5 IC50 (5d 2.76 μM; 6h 3.43 μM)) worked out at 5.62%; in the test with MGC80-3 cells (MGC80-3, IC50 (5d 5.52 μM; 6h 6.85 μM)) it was 14.25%. Besides, the apoptosis ratio in the test on T24 cells came to 10.749%.
